According to ChEMBL document CHEMBL5126655, “Koshidacins A and B, Antiplasmodial Cyclic Tetrapeptides from the Okinawan Fungus Pochonia boninensis FKR-0564” (J Nat Prod, 2022):

Experiments:
Plasmodium berghei = test: Antiplasmodial activity against plasmodium berghei N strain infected in ICR(CD1) mouse assessed as inhibition of parasitemia at 30 mg/kg, ip administered for 3 days relative to control; type: functional; details: 72 h, time 3 day
[1] = Selectivity index, ratio of CC50 for human MRC5 cells to IC50 for plasmodium falciparum K1; type: toxicity; details: read-out: Ratio CC50/IC50
Plasmodium falciparum [2] = test: Antiplasmodial activity against Plasmodium falciparum FCR3 assessed as reduction in parasite growth incubated for 72 hr by LDH assay; type: functional, organism-based; details: FCR3, 72 h
Plasmodium falciparum [3] = test: Antiplasmodial activity against Plasmodium falciparum K1 assessed as reduction in parasite growth incubated for 72 hr by LDH assay; type: functional, organism-based; details: K1, 72 h
[4] = Selectivity index, ratio of CC50 for human MRC5 cells to IC50 for plasmodium falciparum FCR3; type: toxicity; details: read-out: Ratio CC50/IC50
[5] = Cytotoxicity against human MRC5 cells assessed as reduction in cell viability after 24 hrs by MTT assay; type: toxicity, cell-based
[6] = Inhibition of HDAC in Plasmodium falciparum infected in human erythrocytes incubated for 2 hr in presence of sodium [14C]acetate by radiometry assay; type: cell-based; details: Erythrocyte

Compound | inhibition in vivo at 30 mg/kg (Plasmodium berghei) [%] | selectivity ratio [1] | IC50 (Plasmodium falciparum [2]) [µM] | IC50 (Plasmodium falciparum [3]) [µM] | selectivity ratio [4] | CC50 at 24 h [5] [µM] | IC50 [6] [µM]
CC1(C)NC(=O)[C@H](CCCCCC(=O)[C@@H](O)CO)NC(=O)[C@H]2CCCN2C(=O)[C@H](Cc2ccccc2)NC1=O | 41 | 18.4 | 0.89 | 0.83 | 16.3 | 14.7 | 
CC1(C)NC(=O)[C@H](CCCCC[C@@H](O)[C@@H](O)CO)NC(=O)[C@H]2CCCN2C(=O)[C@H](Cc2ccccc2)NC1=O | 18.3 | 0.5 | 17.1 | 12.5 | 0.4 | 6.8 | 
CCC(=O)CCCCC[C@@H]1NC(=O)[C@H]2CCCCN2C(=O)[C@H]([C@@H](C)CC)NC(=O)[C@H](Cc2cn(OC)c3ccccc23)NC1=O [APICIDIN] |  |  |  |  |  |  | 0.0007
C[C@@H]1CC[C@H]2[C@@H](C)C(=O)O[C@@H]3O[C@@]4(C)CC[C@@H]1[C@]32OO4 [ARTEMISININ] | 99.7 | > 1140 | 0.026 | 0.022 | > 961 | > 25 | 
